In data set [1] the target is T1, Solute carrier organic anion transporter family member 1B1 (Homo sapiens, UniProt Q9Y6L6).
T1 sequence (Q9Y6L6 whole entry): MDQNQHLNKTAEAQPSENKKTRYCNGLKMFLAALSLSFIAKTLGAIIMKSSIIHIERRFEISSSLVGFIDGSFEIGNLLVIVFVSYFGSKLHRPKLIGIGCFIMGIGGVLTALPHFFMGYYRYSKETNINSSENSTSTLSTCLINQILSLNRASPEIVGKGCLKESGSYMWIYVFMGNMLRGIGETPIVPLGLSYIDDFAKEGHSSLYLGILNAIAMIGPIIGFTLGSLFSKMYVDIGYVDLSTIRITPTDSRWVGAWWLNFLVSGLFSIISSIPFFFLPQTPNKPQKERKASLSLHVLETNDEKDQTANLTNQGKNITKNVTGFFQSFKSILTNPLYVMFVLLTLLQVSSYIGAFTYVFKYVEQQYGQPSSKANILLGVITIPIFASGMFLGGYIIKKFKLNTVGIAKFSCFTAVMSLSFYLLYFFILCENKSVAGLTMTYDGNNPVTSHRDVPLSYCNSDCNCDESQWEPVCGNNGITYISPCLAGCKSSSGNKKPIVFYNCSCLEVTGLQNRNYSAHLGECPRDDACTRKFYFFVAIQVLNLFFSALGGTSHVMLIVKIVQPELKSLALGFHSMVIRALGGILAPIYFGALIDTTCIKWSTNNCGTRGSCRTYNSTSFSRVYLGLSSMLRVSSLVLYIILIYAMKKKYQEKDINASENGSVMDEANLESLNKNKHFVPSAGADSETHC
Conditions: chinese hamster, cho, 10 µM.

Data set [2] addresses T2, Solute carrier organic anion transporter family member 1B3 (Homo sapiens, UniProt Q9NPD5).
T2 sequence (Q9NPD5 whole entry): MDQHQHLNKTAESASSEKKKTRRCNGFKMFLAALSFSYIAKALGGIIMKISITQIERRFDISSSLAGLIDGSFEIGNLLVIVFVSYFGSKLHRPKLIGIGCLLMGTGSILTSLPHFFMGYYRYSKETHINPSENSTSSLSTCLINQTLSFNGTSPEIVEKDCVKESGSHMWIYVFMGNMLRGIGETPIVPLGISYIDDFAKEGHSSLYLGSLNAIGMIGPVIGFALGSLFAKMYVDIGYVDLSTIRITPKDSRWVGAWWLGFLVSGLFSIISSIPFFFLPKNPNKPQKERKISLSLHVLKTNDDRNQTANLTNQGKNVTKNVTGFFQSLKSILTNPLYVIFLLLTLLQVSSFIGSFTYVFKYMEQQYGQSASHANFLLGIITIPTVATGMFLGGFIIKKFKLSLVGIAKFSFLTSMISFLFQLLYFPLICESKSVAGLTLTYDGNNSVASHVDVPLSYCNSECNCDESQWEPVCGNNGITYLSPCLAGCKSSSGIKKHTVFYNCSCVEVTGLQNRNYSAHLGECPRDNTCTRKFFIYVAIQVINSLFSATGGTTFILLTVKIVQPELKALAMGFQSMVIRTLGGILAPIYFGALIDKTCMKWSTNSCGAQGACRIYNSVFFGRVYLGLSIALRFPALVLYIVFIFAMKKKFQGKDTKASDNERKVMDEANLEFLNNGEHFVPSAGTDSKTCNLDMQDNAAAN
As to conditions: chinese hamster, cho, 10 µM.

Our source for the residual activity values is ChEMBL document CHEMBL3039007, “Structure-based identification of OATP1B1/3 inhibitors” (Mol Pharmacol, 2013).

For `CCCCC(=O)N(Cc1ccc(-c2ccccc2-c2nnn[nH]2)cc1)[C@H](C(=O)O)C(C)C`, the figures for the residual activity in data set [1] and in data set [2] were 67.47% and 56.31%, respectively.
For `CC(=O)N[C@@H](CC(=O)O)C(=O)O` the same measures were 127.8163% and 103.6%.
The matching figures for `NCC[C@H](O)C(=O)N[C@@H]1C[C@H](N)[C@@H](O[C@H]2O[C@H](CN)[C@@H](O)[C@H](O)[C@H]2O)[C@H](O)[C@H]1O[C@H]1O[C@H](CO)[C@@H](O)[C@H](N)[C@H]1O.O=S(=O)(O)O`: 72.99% and 92.21%.
The matching figures for `CN[C@@H]1[C@H](O)[C@H](NC)[C@H]2O[C@@]3(O)C(=O)C[C@@H](C)O[C@H]3O[C@@H]2[C@H]1O.Cl`: 89.17% and 96.23%.
For `CCCCCC(C)N.O=S(=O)(O)O` (stereo not given), the values for the residual activity in data set [1] and in data set [2] were 70.88% and 90.66%, respectively.
For `COC(=O)CCCOc1ccc(Cl)cc1Cl` the same measures were 118.1% and 115.5%.
For `CC1=C(CC(=O)O)c2cc(F)ccc2/C1=C\c1ccc([S+](C)[O-])cc1` (stereo not given) the same measures were 240.6% and 88.55%.
Consider `CC[C@@H](CO)NCCN[C@@H](CC)CO.Cl`, for which the residual activity (usually the signal under treatment as a percentage of the control signal) in data set [1] is 71.57%; in data set [2], 86.34%.
For `O=C(O)CCCOc1ccc(Cl)cc1Cl` the same measures were 123.3% and 112%.
For `CCCCCCCCCCCCCCCC[n+]1ccccc1.O.[Cl-]` the same measures were 77.95% and 166.6%.
For `CC(=O)[C@H]1CC[C@H]2[C@@H]3CC[C@@H]4C[C@H](O)CC[C@]4(C)[C@H]3C[C@H](O)[C@]12C` the same measures were 97.69% and 117.8%.
Consider `CC(=O)O[C@H]1C[C@@H](OC(C)=O)C(C)(C)[C@@H]2C[C@@H](OC(C)=O)[C@@]3(C)C4=CC(=O)O[C@@H](c5ccoc5)[C@]4(C)CC[C@@H]3[C@@]12C`, for which the results for the residual activity in data set [1] and in data set [2] were 107.2% and 104.2%, respectively.
The matching figures for `CC1(C)C(=O)C=C[C@]2(C)[C@H]3CC[C@@]4(C)[C@H](c5ccoc5)OC(=O)[C@H]5O[C@]54[C@]3(C)C=C[C@@H]12`: 56.92% and 75.29%.
As for `CC1CC[C@]2(OC1)OC1C[C@H]3[C@@H]4CC[C@H]5C[C@@H](O)CC[C@]5(C)C4=CC[C@]3(C)C1[C@@H]2C` (stereo not given in full), the residual activity came to 109.1% in data set [1] and 108.3% in data set [2].
For `CC(=O)O[C@H]1C[C@@H](OC(C)=O)C(C)(C)[C@@H]2CC(=O)[C@]3(C)[C@H](CC[C@@]4(C)[C@H](C(=O)O)OC(=O)[C@H]5O[C@]543)[C@@]12C` the same measures were 72.69% and 72.75%.
The matching figures for `COC(=O)[C@@]1(C)CCC[C@]2(C)c3ccc(O)c(C(C)C)c3CC[C@@H]12`: 90.51% and 122.1%.
For `CC(=O)Oc1ccc2c(c1C(C)C)CC[C@H]1C(C)(C)CCC[C@]21C` the same measures were 70.34% and 105.1%.
Turning to `CC(=O)O[C@@H]1C[C@H]2C(C)(C)C(=O)[C@H]3O[C@H]3[C@]2(C)[C@H]2CC[C@@]3(C)[C@H](c4ccoc4)OC(=O)[C@H]4O[C@]43[C@@]21C`, the residual activity in data set [1] is on record as 58.52%; in data set [2] it was 88.38%.
The matching figures for `CC1(C)[C@H](O)C[C@H](O)[C@]2(C)[C@H]3CC[C@@]4(C)[C@H](c5ccoc5)OC(=O)[C@H]5O[C@]54[C@]3(C)C(=O)C[C@@H]12`: 48.25% and 93.94%.
On to `CC(C)c1c(O)c(-c2cc3c(c(C(C)C)c2O)CC[C@H]2C(C)(C)CCC[C@]32C)cc2c1CC[C@H]1C(C)(C)CCC[C@]21C`, for which the residual activity is 64.65% in data set [1] and 91.38% in data set [2].
For `C[C@]12CC[C@@H]3c4ccc(OCc5ccccc5)cc4CC[C@H]3[C@@H]1C[C@@H](O)[C@@H]2O` the same measures were 100% and 102.7%.
The matching figures for `CC(C)CCCCCOC(=O)COc1cc(Cl)c(Cl)cc1Cl`: 105.5% and 93.76%.
For `C[C@]12CC[C@@H]3c4ccc(OS(=O)(=O)[O-])cc4CC[C@H]3[C@@H]1CC[C@@H]2O.[Na+]` the same measures were 53.18% and 95.65%.
With `COc1ccc2c(c1)CC[C@@H]1[C@@H]2CC[C@]2(C)[C@@H](O)[C@H](O)C[C@@H]12`, the residual activity in data set [1] was 76.58%; in data set [2] it was 103.4%.
For `C[C@@H]1CC(Cl)CC[C@H]1C(=O)OC(C)(C)C.C[C@@H]1CCC(Cl)C[C@H]1C(=O)OC(C)(C)C` (stereo not given in full) the same measures were 121% and 115.1%.
The matching figures for `CCC(=O)OCC(=O)[C@]1(OC(=O)CC)[C@H](C)C[C@H]2[C@@H]3CCC4=CC(=O)C=C[C@]4(C)[C@@]3(F)[C@@H](O)C[C@]21C`: 76.42% and 77.45%.
The matching figures for `CC1(C)C(=O)[C@@H]2O[C@@H]2[C@]2(C)[C@H]3CC[C@@]4(C)[C@H](c5ccoc5)OC(=O)[C@H]5O[C@]54[C@]3(C)C(=O)C[C@@H]12`: 68.02% and 74.75%.
On to `CC1(C)[C@H](O)CC(=O)[C@]2(C)[C@H]3CC[C@@]4(C)[C@H](c5ccoc5)OC(=O)[C@H]5O[C@]54[C@]3(C)C(=O)C[C@@H]12`, for which the residual activity in data set [1] worked out at 33.49%; in data set [2] it was 61.45%.
The matching figures for `C[C@H](CCC(=O)O)[C@H]1CC[C@H]2[C@@H]3CC[C@@H]4CC(=O)CC[C@]4(C)[C@H]3C=C[C@]12C`: 40.37% and 203.2%.
For `COC(=O)[C@@H]1OC(=O)[C@H]2O[C@]23[C@@]2(C)[C@H](CC[C@@]13C)[C@@]1(C)CCC(=O)C(C)(C)[C@@H]1C[C@H]2OC(C)=O` the same measures were 49.67% and 99.12%.
The matching figures for `CC(=O)O[C@H]1CC[C@@]23C(=O)O[C@]45CC[C@H](C6=CC(=O)OC6)[C@@]4(C)CC[C@H]2[C@H]5CC[C@]3(O)C1`: 59.99% and 85.76%.
Regarding `CC=CC(=O)N(CC)c1ccccc1C`, the residual activity is on record as 71.83% in data set [1] and 72.95% in data set [2].
For `O=C(Nc1ccccc1)Nc1ccccc1` the same measures were 86.66% and 104.3%.
The matching figures for `O=C(O)CCCN1C(=O)c2cccc3cccc(c23)C1=O`: 113.1% and 112.7%.
Regarding `C=C1C(=O)O[C@@H]2C3O[C@]3(C)CC/C=C(\C)CC[C@@H]12` (stereo not given in full), the residual activity came to 140.7% in data set [1] and 114.2% in data set [2].
For `CCOC(N)=O` the same measures were 109.1% and 101.6%.
For `Cc1cc(-c2ccccc2)nnc1NCCN1CCOCC1.Cl` the same measures were 73.96% and 96.66%.
The matching figures for `Cc1onc(-c2ccccc2)c1C(=O)N[C@@H]1C(=O)N2[C@@H]1SC(C)(C)[C@@H]2C(=O)[O-].[Na+]`: 76.67% and 90.07%.
Consider `C=CC1=C(C(=O)O)N2C(=O)[C@@H](NC(=O)/C(=N\O)c3csc(N)n3)[C@H]2SC1`, for which the residual activity is on record as 92.13% in data set [1] and 78.64% in data set [2].
The matching figures for `CCN(CC)C(=S)SSC(=S)N(CC)CC`: 71.59% and 64.06%.
